US8076487B2, “Pyridone derivative and herbicide” (Kumiai Chemical Industry Co., Ltd., priority 2006, dated 2011)

Columns and labels:
Assay type in all cases: in vivo
[1] = test system: green foxtail (Setaria viridis (L.) P. Beauv.); assay: Test Example 2: herbicidal effect by soil application to upland field; settings: soil surface spray, upland field soil, 1,000 g active ingredient per hectare, 21st day after application
Method in brief: (§1)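 Dose was 1,000 g active ingredient per hectare, applied as a wettable powder diluted in water and sprayed evenly over the soil of sown, covered pots at a 1,000 L/ha equivalent. Effect was judged by a standard scale 21 d later under greenhouse conditions.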

[2] = test system: barnyardgrass (Echinochloa crus-galli (L.) P. Beauv. var. crus-galli); assay: as above; settings: soil surface spray, upland field soil, 1,000 g active ingredient per hectare, 21st day after application
Method in brief: as §1

[3] = test system: slender amaranth (Amaranthus viridis L.); assay: as above; settings: soil surface spray, upland field soil, 1,000 g active ingredient per hectare, 21st day after application
Method in brief: as §1

[4] = test system: velvetleaf (Abutilon theophrasti medicus); assay: as above; settings: soil surface spray, upland field soil, 1,000 g active ingredient per hectare, 21st day after application
Method in brief: as §1

[5] = test system: green foxtail (Setaria viridis (L.) P. Beauv.); assay: Test Example 3: herbicidal effect by application to upland field (foliage treatment); settings: 14th day after application; for herbicidal effect (index), Green Foxtail: foliage treatment, plants grown two weeks, 1,000 g active ingredient per hectare; for herbicidal effect, Green Foxtail: foliage treatment, 1,000 g active ingredient per 1 hectare, greenhouse
Method in brief: (§2)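 Sow in field soil; grow 2 weeks in greenhouse; spray foliage from above with wettable-powder dilution (1,000 g AI/ha, 1,000 L/ha); return to greenhouse; score effect at day 14 against a standard.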

[6] = test system: barnyardgrass (Echinochloa crus-galli (L.) P. Beauv. var. crus-galli); assay: as above; settings: 14th day after application; for herbicidal effect (index), Barnyardgrass: foliage treatment, plants grown two weeks, 1,000 g active ingredient per hectare; for herbicidal effect, Barnyardgrass: foliage treatment, 1,000 g active ingredient per 1 hectare, greenhouse
Method in brief: as §2

[7] = test system: slender amaranth (Amaranthus viridis L.); assay: as above; settings: 14th day after application; for herbicidal effect (index), Slender Amaranth: foliage treatment, plants grown two weeks, 1,000 g active ingredient per hectare; for herbicidal effect, Slender Amaranth: foliage treatment, 1,000 g active ingredient per 1 hectare, greenhouse
Method in brief: as §2

[8] = test system: velvetleaf (Abutilon theophrasti medicus); assay: as above; settings: 14th day after application; for herbicidal effect (index), Velvetleaf: foliage treatment, plants grown two weeks, 1,000 g active ingredient per hectare; for herbicidal effect, Velvetleaf: foliage treatment, 1,000 g active ingredient per 1 hectare, greenhouse
Method in brief: as §2

[9] = test system: early watergrass (Echinochloa oryzicola Vasing); assay: Test Example 1: herbicidal effect by soil application to paddy field; settings: paddy field soil application; active ingredient 1,000 g per 1 hectare; wettable powder added dropwise to water surface the day after sowing; examined on the 21st day after application
Method in brief: (§3)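 Plants were sown in flooded (3 cm) paddy soil and evaluated for herbicidal effect 21 days after soil application in a greenhouse.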

[10] = test system: heartshape false pickerelweed (Monochoria vaginalis (Burm.f.) C.Presl); assay: as above; settings: paddy field soil application; active ingredient 1,000 g per 1 hectare; wettable powder added dropwise to water surface the day after sowing; examined on the 21st day after application
Method in brief: as §3

[11] = test system: Japanese bulrush (Scirpus juncoides Roxb.); assay: as above; settings: paddy field soil application; active ingredient 1,000 g per 1 hectare; wettable powder added dropwise to water surface the day after sowing; examined on the 21st day after application
Method in brief: as §3

SMILES	herbicidal effect (index), Green Foxtail [1]	herbicidal effect (index), Barnyardgrass [2]	herbicidal effect (index), Slender Amaranth [3]	herbicidal effect (index), Velvetleaf [4]	herbicidal effect (index), Green Foxtail [5]	herbicidal effect (index), Barnyardgrass [6]	herbicidal effect (index), Slender Amaranth [7]	herbicidal effect (index), Velvetleaf [8]	herbicidal effect, Echinochloa oryzicola Vasing [9]	herbicidal effect, Monochoria vaginalis (Burm. f.) C. Presl [10]	herbicidal effect, Scirpus juncoides Roxb. [11]	herbicidal effect, Green Foxtail [5]	herbicidal effect, Barnyardgrass [6]	herbicidal effect, Slender Amaranth [7]	herbicidal effect, Velvetleaf [8]
O=C1CCCC(O)=C1C(=O)c1ccc(C(F)(F)F)n(-c2cccc(Cl)c2)c1=O [I-74]	5 (90% or more of herbicidal effect and crop phytotoxicity)	5 (90% or more of herbicidal effect and crop phytotoxicity)	5 (90% or more of herbicidal effect and crop phytotoxicity)	5 (90% or more of herbicidal effect and crop phytotoxicity)	5 (90% or more of herbicidal effect and crop phytotoxicity)	5 (90% or more of herbicidal effect and crop phytotoxicity)	5 (90% or more of herbicidal effect and crop phytotoxicity)	5 (90% or more of herbicidal effect and crop phytotoxicity)	5 (90% or more of herbicidal effect and crop phytotoxicity)	5 (90% or more of herbicidal effect and crop phytotoxicity)	5 (90% or more of herbicidal effect and crop phytotoxicity)	–	–	–	–
COCCOCCn1c(C(F)(F)F)ccc(C(=O)C2=C(O)C3CCC(C3)C2=O)c1=O (stereo not shown) [III-23]	5 (90% or more of herbicidal effect and crop phytotoxicity)	5 (90% or more of herbicidal effect and crop phytotoxicity)	5 (90% or more of herbicidal effect and crop phytotoxicity)	5 (90% or more of herbicidal effect and crop phytotoxicity)	–	–	–	–	5 (90% or more of herbicidal effect and crop phytotoxicity)	5 (90% or more of herbicidal effect and crop phytotoxicity)	5 (90% or more of herbicidal effect and crop phytotoxicity)	5 (90% or more of herbicidal effect and crop phytotoxicity)	5 (90% or more of herbicidal effect and crop phytotoxicity)	5 (90% or more of herbicidal effect and crop phytotoxicity)	5 (90% or more of herbicidal effect and crop phytotoxicity)
N#Cc1ccc(Cn2c(C(F)(F)F)ccc(C(=O)C3=C(O)CCCC3=O)c2=O)cc1 [I-119]	5 (90% or more of herbicidal effect and crop phytotoxicity)	5 (90% or more of herbicidal effect and crop phytotoxicity)	5 (90% or more of herbicidal effect and crop phytotoxicity)	5 (90% or more of herbicidal effect and crop phytotoxicity)	–	–	–	–	5 (90% or more of herbicidal effect and crop phytotoxicity)	5 (90% or more of herbicidal effect and crop phytotoxicity)	5 (90% or more of herbicidal effect and crop phytotoxicity)	5 (90% or more of herbicidal effect and crop phytotoxicity)	5 (90% or more of herbicidal effect and crop phytotoxicity)	5 (90% or more of herbicidal effect and crop phytotoxicity)	5 (90% or more of herbicidal effect and crop phytotoxicity)
O=C1CCCC(O)=C1C(=O)c1ccc(C(F)(F)F)n(-c2ccccc2Cl)c1=O [I-73]	5 (90% or more of herbicidal effect and crop phytotoxicity)	5 (90% or more of herbicidal effect and crop phytotoxicity)	5 (90% or more of herbicidal effect and crop phytotoxicity)	5 (90% or more of herbicidal effect and crop phytotoxicity)	4 (70 to less than 90% of herbicidal effect and crop phytotoxicity)	5 (90% or more of herbicidal effect and crop phytotoxicity)	5 (90% or more of herbicidal effect and crop phytotoxicity)	5 (90% or more of herbicidal effect and crop phytotoxicity)	5 (90% or more of herbicidal effect and crop phytotoxicity)	5 (90% or more of herbicidal effect and crop phytotoxicity)	5 (90% or more of herbicidal effect and crop phytotoxicity)	–	–	–	–
Cn1ncc(C(=O)c2ccc(C(F)(F)F)n(C)c2=O)c1O [IV-1, 4-[1,2-dihydro-1-methyl-2-oxo-6-(trifluoromethyl)pyridine-3-carbonyl]-5-hydroxy-1-methyl-1H-pyrazole]	4 (70 to less than 90% of herbicidal effect and crop phytotoxicity)	5 (90% or more of herbicidal effect and crop phytotoxicity)	5 (90% or more of herbicidal effect and crop phytotoxicity)	5 (90% or more of herbicidal effect and crop phytotoxicity)	–	–	–	–	5 (90% or more of herbicidal effect and crop phytotoxicity)	5 (90% or more of herbicidal effect and crop phytotoxicity)	5 (90% or more of herbicidal effect and crop phytotoxicity)	4 (70 to less than 90% of herbicidal effect and crop phytotoxicity)	4 (70 to less than 90% of herbicidal effect and crop phytotoxicity)	5 (90% or more of herbicidal effect and crop phytotoxicity)	5 (90% or more of herbicidal effect and crop phytotoxicity)
N#Cc1cccc(Cn2c(C(F)(F)F)ccc(C(=O)C3=C(O)CCCC3=O)c2=O)c1 [I-118]	4 (70 to less than 90% of herbicidal effect and crop phytotoxicity)	5 (90% or more of herbicidal effect and crop phytotoxicity)	5 (90% or more of herbicidal effect and crop phytotoxicity)	5 (90% or more of herbicidal effect and crop phytotoxicity)	–	–	–	–	5 (90% or more of herbicidal effect and crop phytotoxicity)	5 (90% or more of herbicidal effect and crop phytotoxicity)	5 (90% or more of herbicidal effect and crop phytotoxicity)	5 (90% or more of herbicidal effect and crop phytotoxicity)	5 (90% or more of herbicidal effect and crop phytotoxicity)	5 (90% or more of herbicidal effect and crop phytotoxicity)	5 (90% or more of herbicidal effect and crop phytotoxicity)
CCc1ccc(C(=O)C2=C(O)CCCC2=O)c(=O)n1-c1ccccc1 [I-230]	5 (90% or more of herbicidal effect and crop phytotoxicity)	4 (70 to less than 90% of herbicidal effect and crop phytotoxicity)	5 (90% or more of herbicidal effect and crop phytotoxicity)	5 (90% or more of herbicidal effect and crop phytotoxicity)	–	–	–	–	5 (90% or more of herbicidal effect and crop phytotoxicity)	5 (90% or more of herbicidal effect and crop phytotoxicity)	5 (90% or more of herbicidal effect and crop phytotoxicity)	4 (70 to less than 90% of herbicidal effect and crop phytotoxicity)	5 (90% or more of herbicidal effect and crop phytotoxicity)	5 (90% or more of herbicidal effect and crop phytotoxicity)	5 (90% or more of herbicidal effect and crop phytotoxicity)
CCN(C)n1c(C(F)(F)F)ccc(C(=O)C2=C(O)CCCC2=O)c1=O [I-175]	5 (90% or more of herbicidal effect and crop phytotoxicity)	5 (90% or more of herbicidal effect and crop phytotoxicity)	5 (90% or more of herbicidal effect and crop phytotoxicity)	5 (90% or more of herbicidal effect and crop phytotoxicity)	–	–	–	–	5 (90% or more of herbicidal effect and crop phytotoxicity)	5 (90% or more of herbicidal effect and crop phytotoxicity)	5 (90% or more of herbicidal effect and crop phytotoxicity)	4 (70 to less than 90% of herbicidal effect and crop phytotoxicity)	5 (90% or more of herbicidal effect and crop phytotoxicity)	5 (90% or more of herbicidal effect and crop phytotoxicity)	5 (90% or more of herbicidal effect and crop phytotoxicity)
